We go through one compound from patent US8337444B2, “Measurement of cardiac output and blood volume by non-invasive detection of indicator dilution for hemodialysis” (Alfred E. Mann Institute for Biomedical Engineering at the …, priority 2001, dated 2012).

For data set [1] the following is noted: cited from earlier work.
Data set [2] in a line: Blood ICG concentration after high dose intravenous injection (calibration sequence). In kind it is in vivo, New Zealand White rabbits. The following applies: rabbit, 1 mg ICG intravenously, metabolized by the liver. An excerpt:
A. A sample method and system for measuring cardiac output and blood volume. Experiments have been performed in New Zealand White rabbits (2.8-3.5 Kg) anesthetized with halothane and artificially ventilated with an oxygen-enriched gas mixture (Fio2˜0.4) to achieve a Sao2 above 99% and an end-tidal CO2 between 28 and 32 mm Hg (FIG. 4). The left femoral artery was cannulated for measurement of the arterial blood pressure throughout the procedure. A small catheter was positioned in the left brachial vein to inject the indicator, ICG. Body temperature was maintained with a heat lamp.
Calibration of the transcutaneous fluorescence intensity measured at the level of the animals' ear as a function of ICG concentration in blood was performed as follows. […]
As the liver metabolizes ICG, the blood ICG concentration decreases back to 0 in about 20 minutes. […] The fluorescence intensity of the blood in the cuvette was converted to a measurement of concentration using the known standard curve of fluorescence intensity versus ICG concentration established for the cuvette. ICG fluorescence was measured at the level of the ear at the exact time of the blood sample withdrawal. […]
For the range of concentrations used in these studies, ICG concentration and transcutaneous fluorescence were linearly related. […]

In data set [3] the test system is blood proteins. The settings on record: protein-bound ICG not cleared by dialysis; cited from earlier work.

For `CC1(C)C(/C=C/C=C/C=C/C=C2\N(CCCCS(=O)(=O)O)c3ccc4ccccc4c3C2(C)C)=[N+](CCCCS(=O)(=O)[O-])c2ccc3ccccc3c21` [ICG, indocyanine green], in data set [1], the “stability in aqueous solution” value is reported as “breaks down quickly”. The “time for blood ICG concentration to decrease back to 0” value in data set [2] is “about 20 minutes”. The “fraction of ICG injected in the bloodstream that binds to blood proteins” value in data set [3] is reported as “more than 95%”.
